Measurements reported in article PMC3855394, “Bright Fluorescence Monitoring System Utilizing Zoanthus sp. Green Fluorescent Protein (ZsGreen) for Human G-Protein-Coupled Receptor Signaling in Microbial Yeast Cells” (PLoS ONE, 2013).

How the values were obtained:
[1] = system: human neurotensin receptor subtype-1 (hNTSR1); experiment: GPCR signaling assay using membrane-tethered peptide ligands, hNTSR1; assay type: cell-based; settings: strain IMFD-72ZsD, pGK421-NTSR1, flow cytometry; for fold increase in fluorescence intensity compared with α-factor: after 24 h cultivation, pH-adjusted SD medium, mean of 10,000 cells, n = 3; for rank order of ZsGreen fluorescence: membrane-tethered peptides, 24 h
Method: (§1) The cultured cells were washed and suspended in distilled water. The cell suspensions were observed using a BZ-9000 fluorescence microscope (Keyence, Osaka, Japan). Green fluorescence images were acquired with a 470/40 band-pass filter for excitation and a 535/50 band-pass filter for emission. Digital image intensities of green fluorescence were carried out, from four experiments each, with the ImageJ software (freely downloadable from the ImageJ website, http://rsbweb.nih.gov/ij/) and expressed as Integrated Density (IntDen) or its percent.
(§2) Flow cytometry measurements of green fluorescence followed previous procedures. In brief, GFP was detected using a BD FACSCanto II flow cytometer equipped with a 488-nm blue laser (Becton, Dickinson and Company, Franklin Lakes, NJ, USA); the data were analyzed using BD FACSDiva software (v5.0; Becton, Dickinson and Company). The GFP fluorescence signal was collected through a 530/30 nm band-pass filter and the GFP-A mean of 10,000 cells was defined as ‘green fluorescence intensity’.
GPCR signaling assays using membrane-tethered peptide ligands basically followed a previous procedure with some modifications. In brief, to assay signal activation from human GPCRs, yeast strains harboring the pGK421-based GPCR expression plasmids and pGK426-based peptide display plasmids were grown in SD medium (supplemented as needed) at 30 °C overnight, then the cells then were inoculated into 5 mL of the respective fresh SDM71 medium to give an initial OD600 = 0.1. The cells were incubated at 30 °C on a rotary shaker at 150 rpm, then the yeast cells were observed using a fluorescence microscope, diluted with 1 ml of sheath fluid, and fluorescence was analyzed by flow cytometry.
Data were analyzed using KaleidaGraph4.0. Statistical significance of the differences between more than two groups was calculated by one-way ANOVA, followed by Tukey’s post test. Z’ factor, a commonly used parameter reflecting the robustness and the quality of assays, was determined as follows: Z’ factor = 1 ‒ 3(SDpositive control + SDnegative control)/ (meanpositive control ‒ meannegative control), where “SD” represents standard deviation of multiple replicates of an assay.

[2] = cited from earlier work
Text: Studies on the structure-activity relationship of neurotensin verified that positive charges at positions 8 and 9 are important but not prerequisite for its bioactivity. There is charge complementarity between NTS8–13 and its binding pocket: the positively- ...

[3] = system: human neurotensin receptor subtype-1 (hNTSR1); experiment: Quantitative digital image analysis of ZsGreen fluorescence (microscopy, ImageJ), hNTSR1; assay type: cell-based; settings: strain IMFD-72ZsD, pGK421-NTSR1; NTS at several concentrations, 4 h; 100 cells, n = 4
Method: as §1
(§3) GPCR signaling assays with exogenously added ligands basically followed previous procedures. In brief, to assay signal activation from human GPCRs, yeast strains harboring the pGK421-based plasmids were grown in SD medium (supplemented as needed) at 30 °C overnight, then the cells then were inoculated into 5 mL of the respective fresh SD medium to give an initial OD600 = 0.03. The cells were incubated at 30 °C on a rotary shaker at 150 rpm for up to 18 h and harvested, washed, and resuspended in water to give an OD600 = 10. […] The plates were incubated at 30 °C with shaking (150 rpm) for 4 h, then the yeast cells were observed using a fluorescence microscope, diluted with 1 mL of sheath fluid, and fluorescence was analyzed by flow cytometry.

[4] = system: human neurotensin receptor subtype-1 (hNTSR1); experiment: GPCR signaling assay with exogenously added ligand, hNTSR1; assay type: cell-based; settings: 4 h; for fold higher fluorescence than in the absence of agonist / fold increase in fluorescence intensity in response to agonist stimulation: pGK421-NTSR1, with vs without 10 μM NTS, 30 °C, pH 7.1 SD medium, flow cytometry, mean of 10,000 cells, n = 3
Method: as §1, §2, §3

[5] = system: human somatostatin receptor subtype-5 (hSSTR5); experiment: GPCR signaling assay with exogenously added ligand, hSSTR5 (FIG1-promoter GFP reporter yeast); assay type: cell-based; settings: 4 h; for fluorescence microscopy observation: 10 μM SST; for fold increase in fluorescence on agonist addition / fold increase in fluorescence intensity in response to agonist stimulation: pGK421-SSTR5, with vs without 10 μM SST, 30 °C, pH 7.1 SD medium, flow cytometry, mean of 10,000 cells, n = 3
Method: as §1, §2, §3

[6] = system: human somatostatin receptor subtype-2 (hSSTR2); experiment: GPCR signaling assay with exogenously added ligand, hSSTR2; assay type: cell-based; settings: 4 h; for fold higher fluorescence on agonist addition / fold increase in fluorescence intensity on agonist stimulation: pGK421-SSTR2, with vs without 10 μM SST, 30 °C, pH 7.1 SD medium, flow cytometry, mean of 10,000 cells, n = 3
Method: as §1, §2, §3

[7] = strain IMFD-70ZsD (ZsGreen, Gpa1p)
[8] = strain IMFD-72ZsD (ZsGreen, Gi3tp)

## KIPYIL [NMN, NMN–Flag–Flo42 in pGK426; membrane-tethered neuromedin N]
[1]
  fold increase in fluorescence intensity compared with α-factor: > 1.5 fold
  rank order of ZsGreen fluorescence: NTS8–13 > NTS > NMN > α-factor

## KIPYIL [neuromedin N, neurotensin-like peptide, KIPYIL (cited from literature)]
[2]
  biological activity: very weak biological activity

## RRPYIL [NTS8–13, NTS 8-13 -Flag–Flo42 in pGK426; membrane-tethered NTS8–13]
[1]
  fold increase in fluorescence intensity compared with α-factor: greater than 35 fold
  rank order of ZsGreen fluorescence: NTS8–13 > NTS > NMN > α-factor

## RRPYIL [Neurotensin-(8-13), pharmacophore of neurotensin, RRPYIL (cited from literature)]
[2]
  potency and efficacy versus full-length NTS: higher potency and efficacy than full-length NTS

## neurotensin [NTS]
[3]
  digital intensity of green fluorescence (IntDen), concentration dependence: varied in a NTS-dependent manner
[4]; hNTSR1-expressing IMFD-72ZsD, 10 μM NTS, 40× and 100× objective
  fluorescence microscopy observation: clearly exhibited changes in green fluorescence and morphology
[4]; strain IMFD-70 (EGFP, Gpa1p)
  fold higher fluorescence than in the absence of agonist: 1.3 fold
[4]; [7]
  fold increase in fluorescence intensity in response to agonist stimulation: 7.9 fold
[4]; strain IMFD-72 (EGFP, Gi3tp)
  fold higher fluorescence than in the absence of agonist: 2.3 fold
[4]; [8]
  fold increase in fluorescence intensity in response to agonist stimulation: 45 fold

## somatostatin [SST]
[5]; hSSTR5-expressing IMFD-70ZsD and IMFD-72ZsD (ZsGreen), 40× and 100× objective
  fluorescence microscopy observation: exhibited changes in green fluorescence and morphology
[5]; hSSTR5-expressing IMFD-70 and IMFD-72 (EGFP)
  fluorescence microscopy observation: the fluorescence was too weak to allow observation with a fluorescence microscope
[5]; strain IMFD-70 (EGFP, Gpa1p)
  fold increase in fluorescence on agonist addition: 3.9 fold
[5]; strain IMFD-70Zs (single ZsGreen substitution, Gpa1p)
  fold increase in fluorescence intensity in response to agonist stimulation: 33 fold
[5]; strain IMFD-70ZsD (double ZsGreen substitution, Gpa1p)
  fold increase in fluorescence intensity in response to agonist stimulation: 83 fold
[5]; strain IMFD-72 (EGFP, Gi3tp)
  fold increase in fluorescence on agonist addition: 5.6 fold
[5]; strain IMFD-72Zs (single ZsGreen substitution, Gi3tp)
  fold increase in fluorescence intensity in response to agonist stimulation: 65 fold
[5]; strain IMFD-72ZsD (double ZsGreen substitution, Gi3tp)
  fold increase in fluorescence intensity in response to agonist stimulation: 104 fold
[6]; hSSTR2-expressing IMFD-72ZsD, 10 μM SST, 40× and 100× objective
  fluorescence microscopy observation: clearly exhibited changes in green fluorescence and morphology
[6]; strain IMFD-70 (EGFP, Gpa1p)
  fold higher fluorescence on agonist addition: 3.0 fold
[6]; [7]
  fold increase in fluorescence intensity on agonist stimulation: 36 fold
[6]; strain IMFD-72 (EGFP, Gi3tp)
  fold higher fluorescence on agonist addition: 4.6 fold
[6]; [8]
  fold increase in fluorescence intensity on agonist stimulation: 81 fold
